Tests used:
[1] = test system: O4+ OLs in subcortical white matter; experiment: OL proliferation and maturation in vivo in pups without insult; design: species or system rat; conditions: 30 mg/kg topiramate or 20 mg/kg NBQX; for number of proliferating (BrdU labeled, O4+) OLs in subcortical white matter: 4 injections every 12 hours at P7 and P8, no insult, vs vehicle; for maturation of white matter (O4, O1, MBP immunohistostaining), qualitative: 4 injections every 12 hours at P7 and P8, at P9 or P11
Procedure: Litters of male Long Evans rat pups (Charles River Laboratories, Wilmington, Mass.) were raised with dams in a temperature-controlled environment with 12 hour light-dark cycles. Pups underwent carotid ligation and hypoxia at post-natal-day (P)7. They were recovered on a thermal blanket at 33-34° C. (baseline temperature for P7 rats) and returned to their dam for 48-96 hours prior to sacrifice. Treated pups were given intra-peritoneal (i.p.) injections of 0.1 cc solutions of topiramate, NBQX or vehicle every 12 hours for 48 hours at P7 and P8 for treatment, control and normal development studies.
Oligodendrocyte maturation and myelin expression were evaluated in animals treated for 48 hours with topiramate as compared with normal development. The sub-cortical white matter was evaluated by immunocytochemistry with antibodies to O4, O1 and myelin basic protein (MBP), for changes in pre-myelinating OL populations and in the pattern of MBP expression in rats sacrificed at P9, acutely after treatment. To evaluate for any permanent effect on mature myelination, the quantity of MBP at P28 in animals treated for 48 hours at P7/8 with topiramate was compared with untreated littermates by Western blot.
Histological and immunocytochemical (ICC) analysis was carried out on serial 20-30 μm coronal sections, cut by either cryostat (for pre-mounted sections) or freezing microtome (floating sections) from the anterior extent of the lateral ventricles through the posterior extent of the dorsal hippocampus. Representative sections from all experimental animals were stained with hematoxylin and eosin (HE) for routine evaluation.
For ICC evaluation, adjacent mounted sections were incubated in 5-10% normal goat serum for one hour to block non-specific binding and concurrently permeabilized in 0.1% Triton X-100. Slides were incubated with MBP antibody (SMA-99, Sternberger Monoclonals, Baltimore, Md.) at a dilution of 1:800 in PBS with 1% normal goat serum plus 0.1% Triton overnight at 4° C., followed by Oregon Green (Molecular Probes, Eugene, Oreg.) anti-mouse IgG secondary antibody for one hour at room temperature. […]
Litters were divided and pups received 4 injections, one every 12 hours for 48 hours at P7 and P8, of either vehicle (n=6), 30 mg/kg topiramate (n=7) or 20 mg/kg NBQX (n=7). […] At the completion of 48 hours the animals were sacrificed and the number of BrdU labeled, O4+ OLs present in the subcortical white matter of coronal sections (n=20/group) were counted (FIG. 5B). […] Furthermore, qualitative analysis of white matter by immunohistostaining for OL stage-specific markers O4, O1 and MBP was carried out in serial sections of the same animals evaluated above.

[2] = test system: oligodendrocyte precursor cells; experiment: 45Ca2+ uptake in oligodendrocyte precursor cells; type: cell-based, rat; conditions: NBQX 100 μM, topiramate 30 μM, uptake after 10 minutes; for OGD-induced Ca2+ accumulation (45Ca2+ uptake): OGD for 2 hr; for kainate-evoked Ca2+ entry (45Ca2+ uptake): kainate 300 μM
Procedure: Primary oligodendrocyte precursor cells were isolated from mixed glial cultures of the forebrains of newborn Sprague-Dawley rats using a selective detachment procedure as described in detail elsewhere (McCarthy and de Vellis, 1980; Back et al., 1998), and further purified by differential adhesion (Back et al., 1998). Precursor cells were maintained in a chemically-defined medium (CDM) supplemented with recombinant human platelet derived growth factor-AA (PDGF, 10 ng/ml) and basic fibroblast growth factor (bFGF, 10 ng/ml). The CDM was Dulbecco Modified Eagle's Medium (DMEM) containing D-glucose (25 mM), L-glutamine (4 mM), sodium pyruvate (1 mM), human apo-transferrin (50 μg/ml), bovine pancreatic insulin (5 μg/ml), sodium selenium (30 nM), hydrocortisone (10 nM), D-biotin (10 nM), and bovine serum albumin (BSA, 1 mg/ml). All chemicals were from Sigma. Precursor cells were maintained in the presence of growth factors (PDGF+bFGF) by refeeding with fresh medium every 48 hr for 7 days, to promote cell proliferation and prevent differentiation (Bogler et al., 1990). Experiments were performed with cultures maintained in CDM without the supplemental growth factors. These cultures were routinely characterized by immunochemical detection of cell-specific markers as described before (Back et al., 1998). Cultures at the beginning of experiments usually consisted of approximately 90% A2B5^+ oligodendrocyte precursors and less than 5% glial fibrillary acidic protein (GFAP)-positive astrocytes. Cells were plated on poly-DL-ornithine-coated 24-well plates for cell viability assays and on coated glass coverslips for immunocytochemistry, proliferation studies, and lineage analysis. To assay Ca^2+ influx, cultures were incubated with ^45CaCl2 (8 μCi/ml) at room temperature for 10 min, then washed with Hank's balanced salts-solution (HBSS) and lysed with 1% Triton-X 100 in HBSS. Radioactivity in the whole lysate was counted by liquid scintillation. To gain further insight into the mechanisms of the protective effect of topiramate and NBQX, kainate- or OGD-evoked calcium accumulation in oligodendrocyte precursor cells was investigated. Cultures were either not treated or given NBQX (100 μM) or topiramate (30 μM), together with ^45CaCl2 (8 μCi/ml), before adding kainate (300 μM) or after exposure to OGD for 2 hr. ^45Ca^2+ uptake was measured after 10 minutes.

Structure (SMILES) | number of proliferating (BrdU labeled, O4+) OLs in subcortical white matter [1] | maturation of white matter (O4, O1, MBP immunohistostaining), qualitative [1] | OGD-induced Ca2+ accumulation (45Ca2+ uptake) [2] | kainate-evoked Ca2+ entry (45Ca2+ uptake) [2]
NS(=O)(=O)c1cccc2c1c([N+](=O)[O-])cc1nc(O)c(O)nc12 [NBQX, 2,3-Dioxo-6-nitro-1,2,3,4-tetrahydrobenzo[f]quinoxaline-7-sulphonamide] | No difference in the number of proliferating OLs was detected | No qualitative difference in maturation was seen | fully prevented | completely blocked
CC1(C)O[C@@H]2[C@@H](CO[C@@]3(COS(N)(=O)=O)OC(C)(C)O[C@@H]23)O1 [topiramate] | No difference in the number of proliferating OLs was detected | No qualitative difference in maturation was seen | fully prevented | partially prevented
